Common to all, as to format: cell-based
For one test, the system named is HL-60(TB). Description: NCI single dose screening (10 µM). To be noted: Homo sapiens.
Another test has as its system K-562. Description: NCI single dose screening (10 µM). To be noted: Homo sapiens.
A further test deals with RPMI-8226. Description: NCI single dose screening (10 µM). To be noted: Homo sapiens.
A further test has as its system EKVX. Description: NCI single dose screening (10 µM). Particulars: Homo sapiens, read-out: GI% (cell growth inhibition percentage).
In a further test the test system is A549/ATCC. Put plainly: NCI single dose screening (10 µM). Particulars: Homo sapiens.
The next test has as its system HOP-92. Description: NCI single dose screening (10 µM). To be noted: Homo sapiens.
Another test deals with HOP-62. Description: NCI single dose screening (10 µM). To be noted: Homo sapiens.
Another test relates to HCC-2998. Put plainly: NCI single dose screening (10 µM). To be noted: Homo sapiens.
The next test has as its system SW-620. Put plainly: NCI single dose screening (10 µM). Particulars: Homo sapiens.
For the next test, the system named is HCT-15. Put plainly: NCI single dose screening (10 µM). Particulars: Homo sapiens.
Another test deals with HT-29. Description: NCI single dose screening (10 µM). To be noted: Homo sapiens.
A further test has as its system SNB-19. Put plainly: NCI single dose screening (10 µM). To be noted: Homo sapiens.
The next test concerns M14. Put plainly: NCI single dose screening (10 µM). Particulars: Homo sapiens.
The test system of another test is UACC-257. Description: NCI single dose screening (10 µM). Particulars: Homo sapiens.
In the next test the test system is UACC-62. Put plainly: NCI single dose screening (10 µM). Particulars: Homo sapiens.
The subject of the next test is OVCAR-8. Description: NCI single dose screening (10 µM). Particulars: Homo sapiens.
The subject of another test is SN12C. Description: NCI single dose screening (10 µM). Particulars: Homo sapiens, read-out: GI% (cell growth inhibition percentage).
In the next test the test system is RXF 393. Put plainly: NCI single dose screening (10 µM). To be noted: Homo sapiens.
The test system of another test is TK-10. Description: NCI single dose screening (10 µM). To be noted: Homo sapiens.
Another test concerns PC-3. Description: NCI single dose screening (10 µM). Particulars: Homo sapiens.
Another test relates to DU-145. Put plainly: NCI single dose screening (10 µM). To be noted: Homo sapiens.
A further test has as its system MCF7. Description: NCI single dose screening (10 µM). Particulars: Homo sapiens.
In test [1] the test system is NCI-55 cancer cell line panel. Description: NCI single dose screening (10 µM), whole panel. To be noted: Homo sapiens, read-out: Mean inhibition, % (mean GI%).

Where two headings read alike, the source gives them in different places.

As to `Cc1c(C(=O)N/N=C2\C(=O)Nc3ccc(Br)cc32)oc2ccccc12` [Compound 5c], the inhibition (usually how much of the control response was suppressed) at 10 µM with HL-60(TB) (HL-60(TB), Leukaemia, single dose 10^−5 M, read-out: GI% (cell growth inhibition percentage)) was 21.5%; in the test on K-562 (K562, K-562, Leukaemia, single dose 10^−5 M, read-out: GI% (cell growth inhibition percentage)), 18%; in the test on RPMI-8226 (RPMI-8226, Leukaemia, single dose 10^−5 M, read-out: GI% (cell growth inhibition percentage)), < 10%; with EKVX (Non-small cell lung cancer, single dose 10^−5 M), 32.1%; in the test on A549/ATCC (A549/ATCC, Non-small cell lung cancer, single dose 10^−5 M, read-out: GI% (cell growth inhibition percentage)) it was 27.9%; with HOP-92 (HOP-92, Non-small cell lung cancer, single dose 10^−5 M, read-out: GI% (cell growth inhibition percentage)), 26.5%. Moreover, the inhibition at 10 µM is 41.4% in the test on HOP-62 (HOP-62, Non-small cell lung cancer, single dose 10^−5 M, read-out: GI% (cell growth inhibition percentage)); < 10% in the test on HCC-2998 (HCC-2998, Colon cancer, single dose 10^−5 M, read-out: GI% (cell growth inhibition percentage)); 10.6% with SW-620 (SW-620, Colon cancer, single dose 10^−5 M, read-out: GI% (cell growth inhibition percentage)); < 10% with HCT-15 (HCT-15, Colon cancer, single dose 10^−5 M, read-out: GI% (cell growth inhibition percentage)); < 10% with HT-29 (HT-29, Colon cancer, single dose 10^−5 M, read-out: GI% (cell growth inhibition percentage)); 31.5% with SNB-19 (SNB-19, CNS cancer, single dose 10^−5 M, read-out: GI% (cell growth inhibition percentage)). Further, the inhibition at 10 µM was 25.4% in the test on M14 (M14, Melanoma, single dose 10^−5 M, read-out: GI% (cell growth inhibition percentage)); < 10% in the test on UACC-257 (UACC-257, Melanoma, single dose 10^−5 M, read-out: GI% (cell growth inhibition percentage)); 30.9% in the test with UACC-62 (UACC-62, Melanoma, single dose 10^−5 M, read-out: GI% (cell growth inhibition percentage)); 22.5% in the test with OVCAR-8 (OVCAR-8, Ovarian cancer, single dose 10^−5 M, read-out: GI% (cell growth inhibition percentage)); 29.8% in the test with SN12C (Renal cancer, single dose 10^−5 M); 11.1% in the test on RXF 393 (RXF 393, Renal cancer, single dose 10^−5 M, read-out: GI% (cell growth inhibition percentage)). In addition, the inhibition at 10 µM in the test with TK-10 (TK-10, Renal cancer, single dose 10^−5 M, read-out: GI% (cell growth inhibition percentage)) is < 10%; in the test with PC-3 (PC-3, Prostate cancer, single dose 10^−5 M, read-out: GI% (cell growth inhibition percentage)) it was 13.8%; with DU-145 (DU-145, Prostate cancer, single dose 10^−5 M, read-out: GI% (cell growth inhibition percentage)), 17%; with MCF7 (MCF7, Breast cancer, single dose 10^−5 M, read-out: GI% (cell growth inhibition percentage)), 26.7%; in [1] (mean over NCI-55 cell lines, single dose 10^−5 M) it was 22%.
On to `Cc1c(C(=O)N/N=C2\C(=O)N(Cc3ccccc3)c3ccccc32)oc2ccccc12` [Compound 7d], for which the inhibition at 10 µM is < 10% with HL-60(TB) (HL-60, read-out: GI% (cell growth inhibition percentage)); < 10% with K-562 (K562, read-out: GI% (cell growth inhibition percentage)); < 10% in the test with RPMI-8226 (RPMI-8226, read-out: GI% (cell growth inhibition percentage)); 30.2% with EKVX; < 10% with A549/ATCC (A549, read-out: GI% (cell growth inhibition percentage)); 12.6% in the test with HOP-92 (HOP-92, read-out: GI% (cell growth inhibition percentage)). The inhibition at 10 µM with HOP-62 (HOP-62, read-out: GI% (cell growth inhibition percentage)) is 20.8%; with HCC-2998 (HCC 2998, read-out: GI% (cell growth inhibition percentage)) it was < 10%; in the test with SW-620 (SW-620, read-out: GI% (cell growth inhibition percentage)), 11.2%; in the test with HCT-15 (HCT-15, read-out: GI% (cell growth inhibition percentage)) it was < 10%; with HT-29 (HT-29, read-out: GI% (cell growth inhibition percentage)), < 10%; in the test with SNB-19 (SNB-19, read-out: GI% (cell growth inhibition percentage)), 11.6%. In addition, the inhibition at 10 µM with M14 (M14, read-out: GI% (cell growth inhibition percentage)) was < 10%; in the test with UACC-257 (UACC-257, read-out: GI% (cell growth inhibition percentage)), < 10%; with UACC-62 (UACC-62, read-out: GI% (cell growth inhibition percentage)), 20.6%; with OVCAR-8 (OVCAR-8, read-out: GI% (cell growth inhibition percentage)), < 10%; with SN12C, < 10%; in the test with RXF 393 (RXF 393, read-out: GI% (cell growth inhibition percentage)), < 10%. The inhibition at 10 µM with TK-10 (TK-10, read-out: GI% (cell growth inhibition percentage)) was < 10%; in the test on PC-3 (PC-3, read-out: GI% (cell growth inhibition percentage)), 15.7%; with DU-145 (DU-145, read-out: GI% (cell growth inhibition percentage)), < 10%; in the test with MCF7 (MCF7, read-out: GI% (cell growth inhibition percentage)) it was 16.7%; in test [1] it was 6.01%.

For the origin of these results see paper PMC8245078, “Development of novel benzofuran-isatin conjugates as potential antiproliferative agents with apoptosis inducing mechanism in Colon cancer” (Journal of Enzyme Inhibition and Medicinal Chemistry, 2021).
